Measured values taken from patent publication US20100297020A1, “PHOSPHORYLATED AND PHOSPHONATED PYRONE ANALOGS FOR THERAPEUTIC TREATMENT” (Limerick Biopharma, Inc., priority 2008, published 2010).

Experiments:
[1] = test system: rats treated with tacrolimus; assay: Blood glucose in rats co-administered with tacrolimus; format: in vivo; details: tacrolimus 0.5 mg/kg i.p. day 1-25; Compound 2 114 mg/kg i.p. day 11-25
[2] = Stability in water at about pH 8; details: water at about pH 8, 24 hours, ambient temperature
Description: Quercetin-3′-O-phosphate is dissolved in water at about pH 8.
Fisetin-3′-O-phosphate is dissolved in water at about pH 8.
Quercetin-3′-O-methylphosphonate (Compound 2) is dissolved in water at about pH 8.

[3] = test system: rats treated with tacrolimus; assay: Renal pathology in rats co-administered with tacrolimus; format: in vivo; details: tacrolimus 0.5 mg/kg with vehicle or with Compound 2 at 11, 28 and 114 mg/kg, 25 days
Description: Tissue is removed from the kidney of rats treated with tacrolimus (Prograf®) at 0.5 mg/kg and inert vehicle, and from rats treated with tacrolimus (Prograf®) at 0.5 mg/kg and quercetin-3′-O-methylphosphonate (Compound 2) at 11 mg/kg, 28 mg/kg, and at 114 mg/kg for 25 days. […] The tissue from rats treated with Compound 2 and tacrolimus show no vacuoles.

AdenosineA1 = target: T1, AdenosineA1 (Homo sapiens, UniProt P30542); assay: AdenosineA1 GTPγS functional assay; format: biochemical; details: 10 μM; compound may be / can be tested
T1 sequence (P30542 1-326): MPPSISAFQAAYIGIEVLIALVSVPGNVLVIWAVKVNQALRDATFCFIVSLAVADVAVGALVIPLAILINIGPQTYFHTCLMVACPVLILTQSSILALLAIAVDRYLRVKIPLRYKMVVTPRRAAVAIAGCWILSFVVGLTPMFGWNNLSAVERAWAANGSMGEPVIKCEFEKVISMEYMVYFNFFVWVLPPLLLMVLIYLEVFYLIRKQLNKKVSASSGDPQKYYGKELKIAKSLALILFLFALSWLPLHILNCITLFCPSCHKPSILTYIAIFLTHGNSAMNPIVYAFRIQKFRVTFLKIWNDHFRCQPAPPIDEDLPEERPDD
Description: The compound is additionally tested in AdenosineA1, AdrenergicA2A, DopamineD25, Histamine H1-, and μ-Opiate GTPγS functional assays using a concentration of 10 μM.
The compound may be additionally tested in AdenosineA1, AdrenergicA2A, DopamineD25, Histamine H1-, and μ-Opiate GTPγS functional assays using a concentration of 10 μM.
The compound can be additionally tested in AdenosineA1, AdrenergicA2A, DopamineD25, Histamine H1-, and μ-Opiate GTPγS functional assays using a concentration of 10 μM.

## O=c1c(O)c(-c2ccc(O)c(OCP(=O)(O)O)c2)oc2cc(O)cc(O)c12 [Compound 2, Quercetin-3′-O-methylphosphonic acid]
[1]
  blood glucose level (tacrolimus induced hyperglycemia): attenuate tacrolimus induced hyperglycemia
[2]
  degradation seen by NMR: no degradation
[3]
  vacuolation of kidney tissue: no vacuoles
AdenosineA1
  antagonist activity in the AdenosineA1 assay: 48%
